Test results as given in PMC5958115, “A novel small molecule chaperone of rod opsin and its potential therapy for retinal degeneration” (Nature Communications, 2018).
Read-outs that look alike come from different tables or passages of the source.

What was measured:
P23H opsin = molecular target: T1, P23H opsin (Mus musculus, UniProt P15409, P23H); assay: Immunoblot of P23H opsin glycosylation in NIH3T3 cell lysates; assay type: cell-based; set-up: key to Improved glycosylation: n = no; y = yes; conditions: for Improved glycosylation: P23H opsin; for effect on glycosylation of P23H opsin (in words): immunoblot, PNGaseF, 10 µM YC-001, 5 µM 9-cis-retinal, 10 µM scriptaid
T1 construct: expressed in transfected cells
Description: NIH3T3-(P23H opsin/GFP) or NIH3T3-(WT-opsin/GFP) cells were seeded in a 48-well plate (Corning Costar) at 3.2 × 10^5 cells per well and incubated at 37 °C with 5% CO2 for 2 h. One hundred-µL of assay medium containing a compound at 5× its final concentration was added to each well. The plate was gently shaken for 5 s before further incubation at 37 °C with 5% CO2 for 24 h. The assay medium then was aspirated, and cells were lysed with 100 µL per well PBS containing 0.1% Triton X-100 and complete protease inhibitor cocktail (Roche, Basel, Switzerland) followed by sonication for 3 s. Protein concentrations were determined with the Bradford assay. For PNGaseF catalyzed deglycosylation, 3 µL of PNGaseF (1500 U, NEB) was added to the cell lysate and the mixture was incubated at room temperature for 1 h before immunoblotting. For NIH3T3-(P23H opsin/GFP) cells, 15 µg of total protein were loaded per well onto an SDS-polyacrylamide gel; whereas for NIH3T3-(WT-opsin/GFP) cells, 5 µg of total protein was loaded per well. Opsin protein was immunostained with 0.2 μg mL^−1 horseradish peroxidase-conjugated 1D4 anti-rhodopsin antibody. Band intensities were measured with ImageJ software (http://imagej.nih.gov/ij/; National the Institutes of Health, Bethesda, MD, USA) and normalized to a glyceraldehyde 3-phosphate dehydrogenase (GAPDH) loading control. Full scans of immunoblotted membranes are shown in Supplementary Fig. 8.

bovine opsin [1] = molecular target: T2, bovine opsin (Bos taurus, UniProt P02699); assay: Ligand-binding assay by Trp fluorescence quenching, opsin in ROS disc membranes; conditions: 20 °C, mean of three biological repeats ± s.d.; for EC50: read-out: EC50 of Trp fluorescence quenching at 330 nm (ΔF/F0)
T2 construct: ROS membranes were isolated from bovine retinas under dim red light; from tissue; host or cells: bovine retina, rod outer segment (ROS) disc membranes, bleached with hydroxylamine
Description: ROS membranes were isolated from bovine retinas under dim red light. To remove membrane associated proteins, ROS membranes were washed with a hypotonic buffer composed of 5 mM bis-tris propane (BTP) and 1 mM EDTA, pH 7.5, followed by gentle homogenization with subsequent centrifugation at 25,000×g for 30 min. This procedure was repeated four times. The final membrane pellet was suspended in 10 mM sodium phosphate buffer, pH 7.0, and 50 mM hydroxylamine to a 3 mg mL^−1 concentration of rhodopsin, placed on ice and illuminated with a 150 Watt bulb for 30 min. Membranes were pelleted by centrifugation at 16,000×g for 5 min and then washed four times with 10 mM sodium phosphate buffer, pH 7.0, and 2% bovine serum albumin followed by 4 washes with 10 mM sodium phosphate buffer, pH 7.0, and two washes with 20 mM BTP, pH 7.5, and 100 mM NaCl. The concentration of opsin was measured with a UV–visible spectrophotometer and quantified using the absorption coefficient ε280 nm = 81,200 M^−1 cm^−1[64].
Emission spectra were recorded with a PerkinElmer L55 Luminescence Spectrophotometer at 20 °C between 300 and 450 nm after excitation at 295 nm, with excitation and emission slit bands set at 5 and 10 nm, respectively. Changes in Trp fluorescence (ΔF/F0; where ΔF is the difference between the initial Trp fluorescence recorded at 330 nm (F0) and Trp fluorescence recorded at 330 nm at a specified YC-001 concentration) were plotted as a function of the ligand concentration. Binding curves were fitted by the Hill function using Origin software for each compound and the EC50 was calculated. All experimental data were corrected for background and self-absorption of excitation and emission light (inner filter effect).

rod opsin = molecular target: T3, rod opsin (Mus musculus, UniProt P15409); assay: cAMP quantification assay in NIH3T3-(WT-opsin/GFP) cells with forskolin; assay type: cell-based
T3 construct: expressed in transfected cells
Description: NIH3T3-(Opsin/GFP) and NIH3T3-(GFP) were plated in two 96-well plates at a density of 50,000 cells per well in 100 µL of DMEM medium containing 10% FBS and antibiotics. After 24 h, cells were washed with Krebs Ringer bicarbonate buffer containing glucose (KRBG), and incubated with KRBG buffer containing 100 µM cAMP specific phosphodiesterase inhibitor, Ro 20–1724 (Tocris, UK) at RT for 10 min. […] While one plate then was wrapped with aluminum foil, the second plate was exposed to regular room light. Both plates were kept in a cell culture incubator for 15 min at 37 °C in 5% CO2. Levels of accumulated cAMP were detected with the Catchpoint cAMP fluorescent assay kit (Molecular Devices, Sunnyvale, CA USA) and the fluorescence with excitation/emission at 530/590 nm was read with a Flexstation3 plate reader (Molecular Devices) as described in the manufacturer’s protocol.

bovine rod opsin = molecular target: T4, bovine rod opsin (Bos taurus, UniProt P02699); assay: Gt activation assay (GTPγS-induced fluorescence change); assay type: biochemical
T4 construct: Constitutive activity of bovine opsin in disc membranes; from tissue; host or cells: bovine retina ROS membranes (opsin membranes and purified Gt)
Description: Gt was extracted and purified from frozen bovine ROS membranes as described in Preparation of Opsin Membranes. The intrinsic increase in the fluorescence from Gtα was measured with a L55 luminescence spectrophotometer (PerkinElmer Life Sciences) using an excitation and emission wavelengths of 300 and 345 nm, respectively[39],[40]. […] DMSO-treated opsin membranes were used to obtain a baseline for the basal activity of opsin. The molar ratio of opsin to Gt was 1:10, with opsin at a concentration of 100 nM and Gt at 1000 nM. […] This step was followed by the addition of 300 μM GTPγS (Sigma-Aldrich) to determine the GTPγS-induced complex dissociation and corresponding fluorescence changes. Gt activation rates were determined and plotted for the first 100 s of the Gt activation assay[40],[67].

bovine opsin [2] = molecular target: T2, bovine opsin; assay: Isorhodopsin pigment regeneration in ROS disc membranes (absorbance at 487 nm); assay type: biochemical; conditions: for competition with 9-cis-retinal in the chromophore-binding pocket: added simultaneously or sequentially with 9-cis-retinal
Description: ROS membranes containing opsin were suspended in buffer composed of 20 mM BTP, pH 7.5, and 100 mM NaCl at a final concentration of 2.5 µM. […] Membranes then were solubilized with 20 mM DDM for 10 min at RT and UV–visible spectra of these samples were measured. To follow the kinetics of isorhodopsin regeneration, opsin membranes were treated with 0, 20, or 60 µM YC-001 for 15 min at RT. […] UV–visible spectra of the samples were measured every 2 min until 2 h of reaction time at RT. Each condition was repeated three times. The time course of isorhodopsin regeneration was fitted by a second-order exponential decay and apparent half-lives were obtained at the time when reaction reached half of the end-point product.
Alternatively, opsin incubated with the above ligands was purified by 1D4-immunoaffinity chromatography. […] After washing, opsin samples were eluted by addition of 1D4 peptide ([…]) to the above buffer and their spectra were measured with a UV–visible spectrophotometer.
To test whether YC-001 stabilizes rod opsin, opsin samples (2.5 µM) were incubated with or without 10 µM YC-001 for 15 min, followed by solubilization in 20 mM DDM. […] UV–visible spectra of these samples then were measured.

T2 sequence (P02699 whole entry): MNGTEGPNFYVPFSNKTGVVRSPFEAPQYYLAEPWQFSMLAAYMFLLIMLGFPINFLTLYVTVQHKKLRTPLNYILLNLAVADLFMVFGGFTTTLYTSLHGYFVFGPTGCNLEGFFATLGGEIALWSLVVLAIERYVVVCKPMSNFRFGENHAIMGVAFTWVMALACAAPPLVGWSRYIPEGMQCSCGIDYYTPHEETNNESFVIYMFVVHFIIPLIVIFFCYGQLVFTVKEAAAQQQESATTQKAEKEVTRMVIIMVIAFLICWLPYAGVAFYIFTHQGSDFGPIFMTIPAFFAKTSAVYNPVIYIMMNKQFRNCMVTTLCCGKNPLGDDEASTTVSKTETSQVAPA
T4 sequence (P02699 whole entry): as above

Improved glycosylation (P23H opsin)	effect on glycosylation of P23H opsin (in words) (P23H opsin)	fold increase in the EC50 of 9-cis-retinal (rod opsin; 40 μM YC-001 co-treatment vs 9-cis-retinal alone)	EC50 (rod opsin; 9-cis-retinal alone, under light, read-out: EC50, cAMP levels)	initial rate of Gt activation, ln(kinitial) (bovine rod opsin; isorhodopsin regenerated by 40 µM 9-cis-retinal alone, upon illumination)	EC50 of Trp fluorescence quenching at 330 nm (ΔF/F0) (bovine opsin [1])	Structure (SMILES)	EC50 (bovine opsin [1])	competition with 9-cis-retinal in the chromophore-binding pocket (bovine opsin [2])	half-life of rod opsin aging at RT (bovine opsin [2]; 10 µM YC-001 vs opsin alone, 0-6 h)	total amount of regenerated isorhodopsin pigment at the end of the reaction (bovine opsin [2]; increasing YC-001, sequential 9-cis-retinal)	reversibility of interaction with opsin (bovine opsin [2]; opsin/isorhodopsin purification after treatment)	IC50 (bovine opsin [2]; read-out: IC50, regenerated isorhodopsin)	EC50 (rod opsin; YC-001 alone, dark or light, read-out: EC50, increase in cAMP levels)	EC50 (rod opsin; YC-001 with 1 μM 9-cis-retinal, under light, read-out: EC50, increase in cAMP levels)	initial rate of Gt activation, ln(kinitial) (bovine rod opsin; 40 µM compound, constitutive activity of opsin, DMSO control −5.3)	initial rate of Gt activation, ln(kinitial) (bovine rod opsin; co-treated with 40 µM 9-cis-retinal and 40 µM YC-001, upon illumination)
y	improvement of glycosylation	3 fold	0.0757 µM	−4.6	–	CC1=C(/C=C/C(C)=C\C=C\C(C)=C\C=O)C(C)(C)CCC1 [9-cis-retinal, reference compound]	1.2 ± 0.1 µM	–	–	–	–	–	–	–	–	–
n	does not affect the glycosylation	–	–	–	did not affect Trp fluorescence	O=C(CCCCCN1C(=O)c2cccc3cccc(c23)C1=O)NO [Scriptaid, reference compound]	–	does not compete with 9-cis-retinal	–	–	–	–	–	–	–	–

Structure (SMILES)	Improved glycosylation (P23H opsin)	effect on glycosylation of P23H opsin (in words) (P23H opsin)	fold increase in the EC50 of 9-cis-retinal (rod opsin; 40 μM YC-001 co-treatment vs 9-cis-retinal alone)	EC50 (rod opsin; 9-cis-retinal alone, under light, read-out: EC50, cAMP levels)	initial rate of Gt activation, ln(kinitial) (bovine rod opsin; isorhodopsin regenerated by 40 µM 9-cis-retinal alone, upon illumination)	EC50 of Trp fluorescence quenching at 330 nm (ΔF/F0) (bovine opsin [1])	EC50 (bovine opsin [1])	competition with 9-cis-retinal in the chromophore-binding pocket (bovine opsin [2])	half-life of rod opsin aging at RT (bovine opsin [2]; 10 µM YC-001 vs opsin alone, 0-6 h)	total amount of regenerated isorhodopsin pigment at the end of the reaction (bovine opsin [2]; increasing YC-001, sequential 9-cis-retinal)	reversibility of interaction with opsin (bovine opsin [2]; opsin/isorhodopsin purification after treatment)	IC50 (bovine opsin [2]; read-out: IC50, regenerated isorhodopsin)	EC50 (rod opsin; YC-001 alone, dark or light, read-out: EC50, increase in cAMP levels)	EC50 (rod opsin; YC-001 with 1 μM 9-cis-retinal, under light, read-out: EC50, increase in cAMP levels)	initial rate of Gt activation, ln(kinitial) (bovine rod opsin; 40 µM compound, constitutive activity of opsin, DMSO control −5.3)	initial rate of Gt activation, ln(kinitial) (bovine rod opsin; co-treated with 40 µM 9-cis-retinal and 40 µM YC-001, upon illumination)
O=C1OCC(c2ccc(Cl)s2)=C1c1cccs1 [YC-001]	y	improvement of glycosylation	–	–	–	–	0.98 ± 0.05 µM	competing with 9-cis-retinal in a short timeframe	significantly longer half-life	did not affect	reversible	11.4 µM	8.22 µM	29.9 µM	−6.1	−4.9
